From ChEMBL document CHEMBL4321872, “Engineering a Potent, Long-Acting, and Periphery-Restricted Oxytocin Receptor Agonist with Anorexigenic and Body Weight Reducing Effects” (J Med Chem, 2020)
Calls of active or inactive are those of the source. The calls are words filed in the database; no cut-off is given here. Numbered stars: 1 amine (or outer) side, 2 acyl side, 3 side chain; on linkers, the order of the positions; unused ones are H or OH. Bridge positions count the residues as written; N and C are the ends. Square brackets hold non-standard residues; d marks the D form. Side chains are listed from the residue outwards. Peptide text beside a SMILES is read from it. * marks the point of attachment. X1 = O=C(O)CCCCCCCCCCCCCCCCC(=O)N[C@@H](CCCCNC(=O)CCOCCOCCNC(=O)CCOCCOCCNC(=O)C*)C(=O)O; X4 = O=C(O)CCCCCCCCCCCCCCCCC(=O)NCCOCCOCCOCCNC(=O)C*; PEG8 = NCCOCCOCCOCCOCCOCCOCCOCCOCCC(=O)O; X3 = CCCCCCCCCCCCCC(=O)NCCOCCOCCNC(=O)C*; Palmitoyl = CCCCCCCCCCCCCCCC(=O)*; X2 = O=C(CCC[*:2])[*:1]; Sar = CNCC(=O)O; Cam = NC(=O)C*

Tests used:
Oxytocin receptor [1] = molecular target: T1, Oxytocin receptor (Homo sapiens, UniProt P30559); assay: Agonist activity at recombinant human Gi/Go-coupled OTR expressed in CHOK1 cells assessed as induction of beta-arrestin recruitment measured after 90 mins in presence of 10% FBS by pathhunter assay; format: cell-based
T1 sequence (P30559 whole entry): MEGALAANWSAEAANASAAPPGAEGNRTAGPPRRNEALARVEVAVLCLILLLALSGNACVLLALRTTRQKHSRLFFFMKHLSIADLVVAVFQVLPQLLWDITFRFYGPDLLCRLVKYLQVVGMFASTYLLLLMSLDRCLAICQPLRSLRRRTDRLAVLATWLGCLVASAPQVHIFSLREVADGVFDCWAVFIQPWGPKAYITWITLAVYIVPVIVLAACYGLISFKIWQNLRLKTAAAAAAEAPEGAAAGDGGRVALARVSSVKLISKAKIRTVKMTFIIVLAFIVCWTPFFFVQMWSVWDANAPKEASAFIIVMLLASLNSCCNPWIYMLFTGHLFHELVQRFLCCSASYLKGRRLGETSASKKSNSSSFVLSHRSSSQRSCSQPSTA

[2] = molecular target: T2, Oxytocin receptor (Homo sapiens) (UniProt P30559); assay: Agonist activity at recombinant human Gi/Go-coupled OTR expressed in CHOK1 cells assessed as induction of beta-arrestin recruitment measured after 90 mins in presence of 10% FBS by pathhunter assay relative to oxytocin; format: cell-based
T2 sequence (whole entry): T1 sequence (P30559 whole entry)

Oxytocin receptor [3] = molecular target: T1, Oxytocin receptor; assay: Agonist activity at recombinant human Gi/Go-coupled OTR expressed in CHOK1 cells assessed as induction of beta-arrestin recruitment measured after 90 mins in absence of 10% FBS by pathhunter assay; format: cell-based
[4] = molecular target: T2, Oxytocin receptor (Homo sapiens); assay: Agonist activity at recombinant human Gi/Go-coupled OTR expressed in CHOK1 cells assessed as induction of beta-arrestin recruitment measured after 90 mins in absence of 10% FBS by pathhunter assay relative to oxytocin; format: cell-based
[5] = molecular target: T2, Oxytocin receptor (Homo sapiens); assay: Ratio of EC50 for agonist activity at recombinant human Gi/Go-coupled OTR expressed in CHOK1 cells in presence of 10% FBS to EC50 for agonist activity at recombinant human Gi/Go-coupled OTR expressed in CHOK1 cells in absence of 10% FBS; format: cell-based
[6] = Aqueous solubility of the compound; format: physicochemical; conditions: buffer
Vasopressin V2 receptor = Vasopressin V2 receptor (Homo sapiens, UniProt P30518); assay: Agonist activity at recombinant human V2 receptor expressed in CHOK1 cells assessed as increase in cAMP level measured after 30 mins by HTRF assay; format: cell-based
[7] = Tmax in C57BL/6 mouse plasma at 1 mg/kg, sc by LC-MS analysis; format: ADME, organism-based
[8] = Terminal half life in C57BL/6 mouse plasma at 1 mg/kg, sc by LC-MS analysis; format: ADME, organism-based; conditions: read-out: beta t1/2 (converted)
[9] = Cmax in C57BL/6 mouse plasma at 1 mg/kg, sc by LC-MS analysis; format: ADME, organism-based; design: dose 1 mg/kg, route subcutaneous
[10] = AUC (0 to last) in C57BL/6 mouse plasma at 1 mg/kg, sc by LC-MS analysis; format: ADME, organism-based; design: dose 1 mg/kg, time 0 - last, route subcutaneous
[11] = Drug level in C57BL/6 mouse at 1 mg/kg, sc measured after 24 hrs by LC-MS analysis; format: ADME, organism-based; conditions: in vivo, read-out: Drug uptake
[12] = Ratio of drug level in brain to plasma in C57BL/6 mouse at 1 mg/kg, sc measured after 7 hrs by LC-MS analysis; format: ADME, organism-based; conditions: read-out: BPR
Mus musculus [13] = assay: Anorexigenic activity in C57BL/6J mouse assessed as reduction in food intake at 0.1 mg/kg, sc measured at 3 hrs interval for 24 hrs; format: functional, organism-based
Mus musculus [14] = assay: Anorexigenic activity in C57BL/6J mouse assessed as reduction in body weight at 0.1 mg/kg, sc measured daily for 2 days; format: functional, organism-based
Mus musculus [15] = assay: Anorexigenic activity in sc dosed C57BL/6J mouse […] model assessed as reduction in food intake administered once daily for 9 days and measured daily during compound dosing; format: functional, organism-based
Mus musculus [16] = assay: Anorexigenic activity in sc dosed C57BL/6J mouse […] model assessed as reduction in body weight administered once daily for 9 days and measured daily during compound dosing; format: functional, organism-based
[17] = Half life in C57BL/6J mouse at 20 mg/kg, sc by LC-MS/MS analysis; format: ADME, organism-based; conditions: in vivo
Mus musculus [18] = assay: Anorexigenic activity in C57BL/6J mouse assessed as reduction in food intake at 0.5 mg/kg, sc measured at 3 hrs interval for 6 hrs; format: functional, organism-based
Mus musculus [19] = assay: Anorexigenic activity in C57BL/6J mouse assessed as reduction in food intake at 0.5 mg/kg, sc measured at 24 hrs post-dose; format: functional, organism-based
Mus musculus [20] = assay: Anorexigenic activity in C57BL/6J mouse assessed as reduction in body weight at 0.5 mg/kg, sc measured daily for 2 days; format: functional, organism-based
Mus musculus [21] = assay: Anorexigenic activity in C57BL/6J mouse […] model assessed as reduction in food intake at 0.1 mg/kg, sc administered once daily for 9 days and measured daily during compound dosing; format: functional, organism-based
Mus musculus [22] = assay: Anorexigenic activity in C57BL/6J mouse […] model assessed as reduction in body weight at 0.1 mg/kg, sc administered once daily for 9 days and measured daily during compound dosing; format: functional, organism-based
[23] = Half life in C57BL/6J mouse; format: ADME; conditions: in vivo

Sequence of Vasopressin V2 receptor (P30518 whole entry): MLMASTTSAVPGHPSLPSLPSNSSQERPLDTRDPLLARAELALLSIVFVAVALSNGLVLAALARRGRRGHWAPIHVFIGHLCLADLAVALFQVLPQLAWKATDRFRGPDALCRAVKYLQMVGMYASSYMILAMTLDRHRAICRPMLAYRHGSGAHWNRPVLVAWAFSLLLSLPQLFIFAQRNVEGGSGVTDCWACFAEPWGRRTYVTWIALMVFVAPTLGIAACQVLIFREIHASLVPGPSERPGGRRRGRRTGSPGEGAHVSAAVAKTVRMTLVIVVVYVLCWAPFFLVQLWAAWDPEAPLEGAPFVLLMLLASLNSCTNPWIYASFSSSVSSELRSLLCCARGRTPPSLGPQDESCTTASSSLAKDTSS

EC50 (Oxytocin receptor [1]) [nM]	%max [2] [%]	EC50 (Oxytocin receptor [3]) [nM]	%max [4] [%]	Ratio EC50 [5]	Compound	other results
14.4	47	–	–	–	CC[C@H](C)[C@@H]1NC(=O)[C@H](Cc2ccc(O)cc2)NC(=O)CCCSC[C@@H](C(=O)N2CCC[C@H]2C(=O)N[C@@H](CC(C)C)C(=O)NCC(N)=O)NC(=O)[C@H](CC(N)=O)NC(=O)[C@H](CSCC(N)=O)NC1=O (YIC(Cam)NCPLG-NH2; linker N-5 via X2)	–
831	–	52.4	34	15.9	CC[C@H](C)[C@@H]1NC(=O)[C@H](Cc2ccc(O)cc2)NC(=O)CCCSC[C@@H](C(=O)NCC(=O)N[C@@H](CSCC(=O)NCCOCCOCCOCCNC(=O)CCCCCCCCCCCCCCCCC(=O)O)C(=O)N(C)CC(N)=O)NC(=O)[C@H](CC(N)=O)NC(=O)[C@H](CCC(N)=O)NC1=O (YIQNCGC(X4)[Sar]-NH2; linker N-5 via X2)	–
> 1000	2.3	–	–	–	CCCCCCCCCCCCCC(=O)NCCOCCOCCNC(=O)CSC[C@@H]1NC(=O)[C@H](Cc2ccc(O)cc2)NC(=O)CCCSC[C@@H](C(=O)N2CCC[C@H]2C(=O)N[C@@H](CC(C)C)C(=O)NCC(N)=O)NC(=O)[C@H](CC(N)=O)NC(=O)[C@H](CCC(N)=O)NC1=O (YC(X3)QNCPLG-NH2; linker N-5 via X2)	–
193	–	2.58	125	74.7	CC[C@H](C)[C@@H]1NC(=O)[C@H](Cc2ccc(O)cc2)NC(=O)CCCSC[C@@H](C(=O)NCC(=O)N[C@@H](CSCC(=O)NCCOCCOCCC(=O)NCCOCCOCCC(=O)NCCCC[C@H](NC(=O)CCCCCCCCCCCCCCCCC(=O)O)C(=O)O)C(=O)NCC(N)=O)NC(=O)[C@H](CC(N)=O)NC(=O)[C@H](CCC(N)=O)NC1=O (YIQNCGC(X1)G-NH2; linker N-5 via X2)	solubility [6]: Soluble; EC50 (Vasopressin V2 receptor): 1800 nM; Tmax [7]: 7 h; half-life [8]: 24.2 h; Cmax [9]: 9110 ng/mL; AUC(0-t) [10]: 350 µg·h/mL; concentration at 24 h [11]: > 850 nM; Kp at 7 h [12]: 0.005; Activity (Mus musculus [13]): Active; Activity (Mus musculus [14]): Active; Activity (Mus musculus [15]): Dose-dependent effect; Activity (Mus musculus [16]): Dose-dependent effect
> 1000	2	–	–	–	CC(C)C[C@H](NC(=O)[C@@H]1CCCN1C(=O)[C@@H]1CSCCCC(=O)N[C@@H](Cc2ccc(O)cc2)C(=O)N[C@@H](CSCC(N)=O)C(=O)N[C@@H](CCC(N)=O)C(=O)N[C@@H](CC(N)=O)C(=O)N1)C(=O)NCC(N)=O (YC(Cam)QNCPLG-NH2; linker N-5 via X2)	–
–	–	–	–	–	CCCCCCCCCCCCCCCC(=O)NCCOCCOCCOCCOCCOCCOCCOCCOCCC(=O)NCCCC[C@H](NC(=O)CNC(=O)[C@@H]1CSSC[C@H](N)C(=O)N[C@@H](Cc2ccc(O)cc2)C(=O)N[C@@H]([C@@H](C)CC)C(=O)N[C@@H](CCC(N)=O)C(=O)N[C@@H](CC(N)=O)C(=O)N1)C(=O)NCC(N)=O (H-CYIQNCGK([PEG8-Palmitoyl])G-NH2; disulfide 1-6)	half-life [17]: 20 h
173	–	3.41	117	50.9	CC[C@H](C)[C@@H]1NC(=O)[C@H](Cc2ccc(O)cc2)NC(=O)CCCSC[C@@H](C(=O)NCC(=O)N[C@@H](CSCC(=O)NCCOCCOCCOCCNC(=O)CCCCCCCCCCCCCCCCC(=O)O)C(=O)NCC(N)=O)NC(=O)[C@H](CC(N)=O)NC(=O)[C@H](CCC(N)=O)NC1=O (YIQNCGC(X4)G-NH2; linker N-5 via X2)	solubility [6]: Soluble
464	–	65.5	50	7.08	CC[C@H](C)[C@@H]1NC(=O)[C@H](Cc2ccc(O)cc2)NC(=O)CCCSC[C@@H](C(=O)NCC(=O)N[C@@H](CSCC(=O)NCCOCCOCCC(=O)NCCOCCOCCC(=O)NCCCC[C@H](NC(=O)CCCCCCCCCCCCCCCCC(=O)O)C(=O)O)C(=O)N(C)CC(N)=O)NC(=O)[C@H](CC(N)=O)NC(=O)[C@H](CCC(N)=O)NC1=O (YIQNCGC(X1)[Sar]-NH2; linker N-5 via X2)	–
18.9	–	5.27	116	3.6	CCCCCCCCCCCCCC(=O)NCCOCCOCCNC(=O)CSC[C@H](NC(=O)CNC(=O)[C@@H]1CSCCCC(=O)N[C@@H](Cc2ccc(O)cc2)C(=O)N[C@@H]([C@@H](C)CC)C(=O)N[C@@H](CCC(N)=O)C(=O)N[C@@H](CC(N)=O)C(=O)N1)C(=O)NCC(N)=O (YIQNCGC(X3)G-NH2; linker N-5 via X2)	solubility [6]: Soluble
5.28	70	–	–	–	CCCCCCCCCCCCCC(=O)NCCOCCOCCNC(=O)CSC[C@H](NC(=O)[C@@H]1CCCN1C(=O)[C@@H]1CSCCCC(=O)N[C@@H](Cc2ccc(O)cc2)C(=O)N[C@@H]([C@@H](C)CC)C(=O)N[C@@H](CCC(N)=O)C(=O)N[C@@H](CC(N)=O)C(=O)N1)C(=O)NCC(N)=O (YIQNCPC(X3)G-NH2; linker N-5 via X2)	–
56.9	–	10.5	57	5.4	CCCCCCCCCCCCCC(=O)NCCOCCOCCNC(=O)CSC[C@H](NC(=O)CNC(=O)[C@@H]1CSCCCC(=O)N[C@@H](Cc2ccc(O)cc2)C(=O)N[C@@H]([C@@H](C)CC)C(=O)N[C@@H](CCC(N)=O)C(=O)N[C@@H](CC(N)=O)C(=O)N1)C(=O)N(C)CC(N)=O (YIQNCGC(X3)[Sar]-NH2; linker N-5 via X2)	–
4.8	97	–	–	–	CC[C@H](C)[C@@H]1NC(=O)[C@H](Cc2ccc(O)cc2)NC(=O)CCCSC[C@@H](C(=O)N2CCC[C@H]2C(=O)N[C@@H](CSCC(N)=O)C(=O)NCC(N)=O)NC(=O)[C@H](CC(N)=O)NC(=O)[C@H](CCC(N)=O)NC1=O (YIQNCPC(Cam)G-NH2; linker N-5 via X2)	–
–	–	–	–	–	CC[C@H](C)[C@@H]1NC(=O)[C@H](Cc2ccc(OC)cc2)NC(=O)CCCSC[C@@H](C(=O)N2CCC[C@H]2C(=O)N[C@@H](CC(C)C)C(=O)NCC(N)=O)NC(=O)[C@H](CC(N)=O)NC(=O)[C@H](CCC(N)=O)NC1=O [CARBETOCIN] (Y(Me)IQNCPLG-NH2; linker N-5 via X2)	Activity (Mus musculus [18]): Active; Activity (Mus musculus [19]): inactive; Activity (Mus musculus [20]): inactive; Activity (Mus musculus [21]): Active; Activity (Mus musculus [22]): Active; half-life [23]: 0.667 h
–	–	–	–	–	CC[C@H](C)[C@@H]1NC(=O)[C@H](Cc2ccc(O)cc2)NC(=O)[C@@H](N)CSSC[C@@H](C(=O)N2CCC[C@H]2C(=O)N[C@@H](CC(C)C)C(=O)NCC(N)=O)NC(=O)[C@H](CC(N)=O)NC(=O)[C@H](CCC(N)=O)NC1=O [OXYTOCIN]	half-life [23]: 0.0333 to 0.05 h
> 1000	5.8	–	–	–	CCCCCCCCCCCCCC(=O)NCCOCCOCCNC(=O)CSC[C@@H]1NC(=O)[C@H]([C@@H](C)CC)NC(=O)[C@H](Cc2ccc(O)cc2)NC(=O)CCCSC[C@@H](C(=O)N2CCC[C@H]2C(=O)N[C@@H](CC(C)C)C(=O)NCC(N)=O)NC(=O)[C@H](CC(N)=O)NC1=O (YIC(X3)NCPLG-NH2; linker N-5 via X2)	–
